In data set [1] the test system is Rattus norvegicus. The data set can be described thus: Antinociceptive activity against Sprague-Dawley rat model of thermal stimuli induced nociception assessed as concentration required for maximal tail flick withdrawal latency administered subcutaneously as single dose measured up to 300 mins by tail flick test. Format: functional, organism-based. The conditions noted are these: 5 h. (Thermal pain tests record how soon the animal reacts.)

The target of data set [2] is Sodium channel protein type 9 subunit alpha (Rattus norvegicus, UniProt O08562). The data set can be described thus: Inhibition of rat Nav1.7 stably expressed in cells with train pulses to -20 mV at 0.1 Hz and holding potential of -90 mV by whole-cell QPatch HT assay. Format: cell-based. (The patch-clamp technique gives a direct electrical read-out from membranes.)
The nature of data set [3]: Inhibition of mast cell degranulation in Wistar Han rat peritoneal lavage mast cells assessed as inhibition histamine release by measuring lowest concentration at which histamine release observed measured after 30 mins. The data set is classed as functional. The conditions noted are these: 0.5 h.
The target of data set [4] is Sodium channel protein type 5 subunit alpha (Homo sapiens, UniProt Q14524). The data set can be described thus: Inhibition of human Nav1.5 by PatchXpress assay. The data set is classed as toxicity.
The target of data set [5] is Sodium channel protein type 4 subunit alpha (Homo sapiens, UniProt P35499). The data set can be described thus: Inhibition of human Nav1.4 stably expressed in cells with train pulses to -20 mV at 0.1 Hz and holding potential of -95 mV by whole-cell Qube-automated patch clamp assay. Format: cell-based.
Sodium channel protein type 4 subunit alpha, sequence (P35499 whole entry): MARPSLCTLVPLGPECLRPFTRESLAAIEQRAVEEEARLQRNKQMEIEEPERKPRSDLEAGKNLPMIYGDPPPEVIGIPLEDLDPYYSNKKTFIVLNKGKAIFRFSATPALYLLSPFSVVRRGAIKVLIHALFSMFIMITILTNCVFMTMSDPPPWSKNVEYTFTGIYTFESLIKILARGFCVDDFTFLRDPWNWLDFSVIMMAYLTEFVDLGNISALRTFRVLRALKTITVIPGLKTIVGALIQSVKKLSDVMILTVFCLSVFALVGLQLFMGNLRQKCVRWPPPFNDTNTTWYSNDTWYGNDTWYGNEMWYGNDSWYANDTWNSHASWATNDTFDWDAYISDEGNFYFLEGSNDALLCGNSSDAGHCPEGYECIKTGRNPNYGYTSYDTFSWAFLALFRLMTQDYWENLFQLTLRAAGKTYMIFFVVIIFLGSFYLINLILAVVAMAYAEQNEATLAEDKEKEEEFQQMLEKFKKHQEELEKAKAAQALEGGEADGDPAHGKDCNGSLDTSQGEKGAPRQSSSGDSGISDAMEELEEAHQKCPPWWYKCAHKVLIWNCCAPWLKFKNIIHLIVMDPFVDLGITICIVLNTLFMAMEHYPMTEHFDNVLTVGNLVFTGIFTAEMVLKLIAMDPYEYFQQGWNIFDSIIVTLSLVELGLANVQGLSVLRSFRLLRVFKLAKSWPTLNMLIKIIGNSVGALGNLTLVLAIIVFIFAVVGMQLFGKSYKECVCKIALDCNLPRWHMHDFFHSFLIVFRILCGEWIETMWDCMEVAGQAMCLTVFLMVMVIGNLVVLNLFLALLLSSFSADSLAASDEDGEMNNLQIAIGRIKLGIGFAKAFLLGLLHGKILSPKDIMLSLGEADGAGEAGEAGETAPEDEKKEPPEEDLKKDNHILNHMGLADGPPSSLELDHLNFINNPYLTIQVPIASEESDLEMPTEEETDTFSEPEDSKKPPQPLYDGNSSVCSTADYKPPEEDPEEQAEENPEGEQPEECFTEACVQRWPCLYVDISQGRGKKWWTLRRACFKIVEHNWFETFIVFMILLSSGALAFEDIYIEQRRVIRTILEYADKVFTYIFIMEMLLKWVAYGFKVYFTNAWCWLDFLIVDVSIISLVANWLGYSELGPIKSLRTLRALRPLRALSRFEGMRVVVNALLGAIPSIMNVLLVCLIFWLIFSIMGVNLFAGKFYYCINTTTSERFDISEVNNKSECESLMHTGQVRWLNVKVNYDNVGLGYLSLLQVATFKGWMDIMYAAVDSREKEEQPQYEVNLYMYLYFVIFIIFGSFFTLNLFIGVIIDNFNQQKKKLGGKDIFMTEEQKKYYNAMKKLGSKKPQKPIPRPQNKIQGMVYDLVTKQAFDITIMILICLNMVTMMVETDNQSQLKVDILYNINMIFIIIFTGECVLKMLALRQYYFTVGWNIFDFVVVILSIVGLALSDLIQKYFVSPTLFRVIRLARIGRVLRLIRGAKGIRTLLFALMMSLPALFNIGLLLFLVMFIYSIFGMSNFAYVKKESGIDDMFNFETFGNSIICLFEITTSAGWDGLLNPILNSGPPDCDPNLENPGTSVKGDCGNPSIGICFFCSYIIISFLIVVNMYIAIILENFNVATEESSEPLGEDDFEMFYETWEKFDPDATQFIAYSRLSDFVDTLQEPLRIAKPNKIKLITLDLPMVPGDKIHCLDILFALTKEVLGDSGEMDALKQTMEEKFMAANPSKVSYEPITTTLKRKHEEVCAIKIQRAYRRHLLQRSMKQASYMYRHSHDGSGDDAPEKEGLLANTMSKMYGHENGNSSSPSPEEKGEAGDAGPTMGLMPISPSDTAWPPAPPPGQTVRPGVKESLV
The target in data set [6] is Voltage-gated inwardly rectifying potassium channel KCNH2 (Homo sapiens, UniProt Q12809). The data set can be described thus: Inhibition of human ERG by PatchXpress assay. The data set is classed as toxicity.
Voltage-gated inwardly rectifying potassium channel KCNH2, sequence (Q12809 whole entry): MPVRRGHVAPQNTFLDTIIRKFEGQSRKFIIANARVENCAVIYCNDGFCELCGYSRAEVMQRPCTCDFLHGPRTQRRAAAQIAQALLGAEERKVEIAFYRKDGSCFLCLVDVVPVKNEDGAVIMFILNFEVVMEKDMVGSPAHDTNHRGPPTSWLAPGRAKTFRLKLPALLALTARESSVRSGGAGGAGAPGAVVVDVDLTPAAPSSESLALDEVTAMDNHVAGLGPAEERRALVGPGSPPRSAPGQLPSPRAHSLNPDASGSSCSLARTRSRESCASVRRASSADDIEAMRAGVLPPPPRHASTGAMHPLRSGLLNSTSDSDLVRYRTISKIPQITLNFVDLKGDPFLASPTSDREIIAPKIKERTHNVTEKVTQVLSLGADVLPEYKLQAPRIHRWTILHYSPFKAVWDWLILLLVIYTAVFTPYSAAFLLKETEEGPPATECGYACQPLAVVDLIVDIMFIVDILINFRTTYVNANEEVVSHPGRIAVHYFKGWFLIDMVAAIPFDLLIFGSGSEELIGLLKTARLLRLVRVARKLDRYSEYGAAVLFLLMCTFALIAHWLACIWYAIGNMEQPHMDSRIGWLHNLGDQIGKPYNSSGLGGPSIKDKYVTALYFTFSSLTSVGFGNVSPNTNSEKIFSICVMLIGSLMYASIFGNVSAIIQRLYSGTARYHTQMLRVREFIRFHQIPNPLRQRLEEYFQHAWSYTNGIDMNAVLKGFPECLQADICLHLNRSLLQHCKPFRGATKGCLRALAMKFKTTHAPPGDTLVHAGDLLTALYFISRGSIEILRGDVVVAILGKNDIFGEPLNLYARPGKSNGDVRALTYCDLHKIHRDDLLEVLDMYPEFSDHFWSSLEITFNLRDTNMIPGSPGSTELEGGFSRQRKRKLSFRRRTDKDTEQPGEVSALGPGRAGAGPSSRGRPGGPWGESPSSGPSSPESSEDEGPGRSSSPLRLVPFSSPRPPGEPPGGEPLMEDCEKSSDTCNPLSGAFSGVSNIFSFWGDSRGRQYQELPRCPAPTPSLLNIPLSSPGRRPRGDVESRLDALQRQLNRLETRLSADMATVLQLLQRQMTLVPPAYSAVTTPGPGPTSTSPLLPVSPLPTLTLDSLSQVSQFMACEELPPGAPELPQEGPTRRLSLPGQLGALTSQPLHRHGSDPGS
The target of data set [7] is Sodium channel protein type 2 subunit alpha (Homo sapiens, UniProt Q99250). The data set can be described thus: Inhibition of human Nav1.2 stably expressed in cells with train pulses to -20 mV at 0.1 Hz and holding potential of -95 mV by Qube-automated patch clamp assay. Format: cell-based.
For data set [8], the target named is Voltage-dependent L-type calcium channel subunit alpha-1C (Homo sapiens, UniProt Q13936). The data set can be described thus: Inhibition of human Cav1.2 stably expressed in HEK293 cells incubated for 30 mins in dark by Fluo-4 AM dye based FLIPR assay. Format: cell-based.
Data set [9] addresses Sodium channel protein type 8 subunit alpha (Homo sapiens, UniProt Q9UQD0). The data set can be described thus: Inhibition of human Nav1.6 stably expressed in cells with train pulses to -20 mV at 0.1 Hz and holding potential of -85 mV by whole-cell Qube-automated patch clamp assay. Format: cell-based.
Data set [10] is described as follows: Half life in Wistar Han rat at 0.3 mg/kg, iv measured upto 24 hrs by LC/MS/MS analysis. Particulars: in vivo. The data set is classed as ADME, organism-based.
The nature of data set [11]: Ratio of IC50 for inhibition of rat Nav1.7 stably expressed in cells to EC50 for antinociceptive activity against Sprague-Dawley rat model of thermal stimuli induced nociception assessed as concentration required for maximal tail flick withdrawal latency. The data set is classed as functional.
In data set [12] the test system is Rattus norvegicus. The data set can be described thus: Antinociceptive activity against Sprague-Dawley rat model of thermal stimuli induced nociception assessed as increase in tail withdrawal latency administered subcutaneously as single dose measured up to 300 mins by tail flick test. The data set is classed as functional, organism-based. The conditions noted are these: dose 1-2 mg/kg, time min <=300.

Data set [13] relates to Rattus norvegicus. The data set can be described thus: Antinociceptive activity against Sprague-Dawley rat model of thermal stimuli induced nociception assessed as concentration required for maximal tail flick withdrawal latency administered subcutaneously as single dose measured up to 24 hrs by tail flick test. Format: functional, organism-based.
Data set [14] concerns the target T1, Sodium channel protein type 9 subunit alpha (Homo sapiens, UniProt Q15858). The data set can be described thus: Inhibition of human Nav1.7 stably expressed in cells with train pulses to -20 mV at 0.1 Hz and holding potential of -95 mV by whole-cell QPatch HT assay. The data set is classed as cell-based.
In data set [15] the target is T1, Sodium channel protein type 9 subunit alpha. The data set can be described thus: Inhibition of human Nav1.7 stably expressed in cells with train pulses to -20 mV at 0.1 Hz and holding potential of -95 mV by Qube-automated patch clamp assay. Format: cell-based.
Data set [16] deals with Mast cell. The data set can be described thus: Effect on mast cell degranulation in Wistar Han rat peritoneal lavage mast cells assessed as increase in maximum histamine level in plasma at upto 1 mg/kg, iv administered as bolus dose measured up to 24 hrs by LC/MS/MS analysis. Format: functional, organism-based. The conditions noted are these: dose mg/kg <=1, time hrs <=24.

The subject of data set [17] is Rattus norvegicus. The data set can be described thus: Antinociceptive activity against Sprague-Dawley rat model of thermal stimuli induced nociception assessed as increase in tail withdrawal latency administered subcutaneously as single dose measured up to 24 hrs by tail flick test. Format: functional, organism-based. The conditions noted are these: time hrs <=24.

The test system of data set [18] is Mast cell. The data set can be described thus: Effect on mast cell degranulation in Wistar Han rat peritoneal lavage mast cells assessed as fold increase in histamine level by measuring histamine Cmax in plasma at 0.3 mg/kg, iv administered as bolus dose measured up to 24 hrs by LC/MS/MS analysis relative to control. Format: functional. The conditions noted are these: time hrs <=24.

Activity calls are given as the source filed them. Where a SMILES comes first, the peptide text is derived from it. Bridges are numbered along the chain shown (N, C = ends). Where only a bound is given, the exact number is not on record here.

As usually defined, the EC50 is the concentration giving half of the maximal effect. For orientation: IC50 means the concentration that gives 50% inhibition. By half-life is commonly meant the time needed for the level to fall by half in the phase considered.

Sodium channel protein type 8 subunit alpha, sequence (Q9UQD0 whole entry): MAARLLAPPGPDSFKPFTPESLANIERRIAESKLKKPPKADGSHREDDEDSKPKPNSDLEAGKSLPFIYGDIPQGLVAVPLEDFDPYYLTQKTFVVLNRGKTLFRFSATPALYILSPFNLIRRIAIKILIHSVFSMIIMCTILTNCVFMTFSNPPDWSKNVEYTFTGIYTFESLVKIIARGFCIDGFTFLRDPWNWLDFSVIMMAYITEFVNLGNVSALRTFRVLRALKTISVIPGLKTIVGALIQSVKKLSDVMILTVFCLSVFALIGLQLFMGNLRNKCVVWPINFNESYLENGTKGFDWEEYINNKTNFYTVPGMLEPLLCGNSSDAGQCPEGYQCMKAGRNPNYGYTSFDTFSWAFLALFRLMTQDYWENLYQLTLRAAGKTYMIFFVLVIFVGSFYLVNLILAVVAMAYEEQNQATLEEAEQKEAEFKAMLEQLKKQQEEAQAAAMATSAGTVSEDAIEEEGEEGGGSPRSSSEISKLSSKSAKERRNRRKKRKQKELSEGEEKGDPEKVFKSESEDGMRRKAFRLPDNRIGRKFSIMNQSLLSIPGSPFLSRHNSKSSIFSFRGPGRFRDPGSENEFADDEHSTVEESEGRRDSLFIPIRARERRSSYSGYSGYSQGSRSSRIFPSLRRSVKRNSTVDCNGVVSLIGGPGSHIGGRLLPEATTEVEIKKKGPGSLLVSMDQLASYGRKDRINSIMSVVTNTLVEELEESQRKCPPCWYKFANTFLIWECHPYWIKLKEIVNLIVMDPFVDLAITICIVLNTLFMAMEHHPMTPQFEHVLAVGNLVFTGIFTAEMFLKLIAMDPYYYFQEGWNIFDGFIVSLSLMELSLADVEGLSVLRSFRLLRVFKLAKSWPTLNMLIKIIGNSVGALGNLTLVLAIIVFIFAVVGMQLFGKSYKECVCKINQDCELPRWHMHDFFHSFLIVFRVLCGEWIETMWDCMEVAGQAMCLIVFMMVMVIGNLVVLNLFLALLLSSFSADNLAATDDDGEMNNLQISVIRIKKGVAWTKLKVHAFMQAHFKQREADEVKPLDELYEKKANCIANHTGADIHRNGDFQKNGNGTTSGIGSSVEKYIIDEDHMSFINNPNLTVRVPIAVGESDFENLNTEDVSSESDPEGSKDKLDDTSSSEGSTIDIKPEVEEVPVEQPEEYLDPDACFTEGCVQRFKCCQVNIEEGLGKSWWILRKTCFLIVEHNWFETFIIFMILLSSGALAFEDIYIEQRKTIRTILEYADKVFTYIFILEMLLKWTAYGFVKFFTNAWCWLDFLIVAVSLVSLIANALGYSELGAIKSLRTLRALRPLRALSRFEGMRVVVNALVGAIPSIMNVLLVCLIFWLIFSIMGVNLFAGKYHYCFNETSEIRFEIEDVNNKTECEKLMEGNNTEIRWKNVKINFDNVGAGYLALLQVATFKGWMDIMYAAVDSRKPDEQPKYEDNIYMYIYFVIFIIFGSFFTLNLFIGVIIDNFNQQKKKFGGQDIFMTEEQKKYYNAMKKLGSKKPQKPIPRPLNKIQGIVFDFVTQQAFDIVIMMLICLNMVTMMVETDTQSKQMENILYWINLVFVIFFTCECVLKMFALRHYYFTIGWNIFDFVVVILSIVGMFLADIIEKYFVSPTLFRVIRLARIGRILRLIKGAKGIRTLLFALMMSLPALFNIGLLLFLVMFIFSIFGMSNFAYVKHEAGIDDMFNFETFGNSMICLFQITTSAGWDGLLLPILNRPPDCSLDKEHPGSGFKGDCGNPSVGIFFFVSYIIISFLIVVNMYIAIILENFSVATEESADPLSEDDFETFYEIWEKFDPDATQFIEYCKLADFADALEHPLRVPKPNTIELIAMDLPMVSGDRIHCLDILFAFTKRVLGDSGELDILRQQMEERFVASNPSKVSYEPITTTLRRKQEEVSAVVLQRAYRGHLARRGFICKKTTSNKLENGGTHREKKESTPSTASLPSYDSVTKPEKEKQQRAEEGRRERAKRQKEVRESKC

On to `CSCC[C@@H]1NC(=O)CNC(=O)[C@H](CCC(=O)O)NC(=O)[C@@H]2CSSC[C@H](NC(=O)[C@@H](N)Cc3ccc(O)cc3)C(=O)N[C@@H](CCC(N)=O)C(=O)N[C@@H](CCCCN)C(=O)N[C@@H](Cc3c[nH]c4ccccc34)C(=O)N[C@@H](CCSC)C(=O)N[C@@H](Cc3c[nH]c4ccccc34)C(=O)N[C@@H]([C@@H](C)O)C(=O)N[C@H]3CSSC[C@H](NC(=O)[C@H](C(C)C)NC1=O)C(=O)N[C@@H](CCCNC(=N)N)C(=O)N[C@@H](CC(C)C)C(=O)N[C@@H](Cc1c[nH]c4ccccc14)C(=O)N[C@H](C(=O)N[C@@H](CCCCN)C(=O)N[C@@H](CCCCN)C(=O)N[C@@H](CCCCN)C(=O)N[C@@H](CC(C)C)C(=O)N[C@@H](Cc1c[nH]c4ccccc14)C(N)=O)CSSC[C@H](NC(=O)[C@H](CCCCN)NC(=O)[C@H](CCCNC(=N)N)NC(=O)[C@H](CCC(=O)O)NC(=O)[C@H](CO)NC(=O)[C@H](CC(=O)O)NC3=O)C(=O)N2`, for which the 50% effective concentration (EC50) with Rattus norvegicus [1] stood at 56 nM. Further, the IC50 in [2] amounted to 1.3 nM; in data set [4], 180 nM; in data set [5] it was 93 nM; in data set [6] it was 22 nM; in data set [7], 1500 nM; in data set [8] it was 1400 nM. The same molecule displayed a half-inhibitory concentration (IC50) in data set [9] of 75 nM. In addition, in data set [3], the LED was 0.37 µM. Besides, the half-life in [10] is < 3 h. For the same molecule, in data set [11], the “fold change (FC)” value is listed as 50. Further, in the data set on Rattus norvegicus [12], the Activity entry is “Dose-Dependent Effect”.
`CC(=O)N[C@H]1CSSC[C@@H]2NC(=O)[C@@H]3CSSC[C@@H](C(=O)N[C@@H](CCCCN)C(=O)N[C@@H](CCCCN)C(=O)N[C@@H](CCCCN)C(=O)N[C@@H](CC(C)C)C(=O)N[C@@H](Cc4c[nH]c5ccccc45)C(N)=O)NC(=O)[C@H](Cc4c[nH]c5ccccc45)NC(=O)[C@H](CC(C)C)NC(=O)[C@H](CCCCN)NC(=O)[C@H](CSSC[C@H](NC(=O)[C@@H]4CCCN4C(=O)[C@H](CCC(=O)O)NC(=O)[C@H](CC(C)C)NC(=O)[C@H](Cc4ccccc4)NC(=O)[C@H](CCCCN)NC(=O)[C@H](CCC(N)=O)NC1=O)C(=O)N[C@@H](CC(=O)O)C(=O)N[C@@H](CO)C(=O)N[C@@H](CCC(=O)O)C(=O)N[C@@H](CCCNC(=N)N)C(=O)N[C@@H](CCCCN)C(=O)N3)NC(=O)[C@H](CCC(=O)O)NC(=O)[C@H](CC(C)C)NC(=O)CNC(=O)[C@H](CCC(=O)O)NC2=O` (Ac-CQKFLEPCDSERKCCEGLECKLWCKKKLW-NH2; disulfide 1-15, 8-20, 14-24): the EC50 with Rattus norvegicus [13] was 1620 nM. In addition, the IC50 is 133 nM in [14]; 183 nM in [15]; 18.8 nM in data set [2]; > 15000 nM in data set [4]; > 17000 nM in data set [5]; > 15000 nM in data set [6]. Moreover, the IC50 in [7] is > 17000 nM; in data set [8], > 30000 nM; in [9], > 17000 nM. Further, the LED in [3] is 30 µM. Further, the half-life in data set [10] is < 3 h. In addition, in data set [11], the “fold change (FC)” value is reported as 50. Also, the outcome with Mast cell [16] was inactive. Also, the Activity result in the data set on Rattus norvegicus [17] is “Dose-Dependent Effect”.
With `CC(C)C[C@@H]1NC(=O)CNC(=O)[C@H](CCC(=O)O)NC(=O)[C@@H]2CSSC[C@H](NC(=O)[C@@H](N)Cc3ccc(O)cc3)C(=O)N[C@@H](CCC(N)=O)C(=O)N[C@@H](CCCCN)C(=O)N[C@@H](Cc3ccccc3)C(=O)N[C@@H](CC(C)C)C(=O)N[C@@H](C)C(=O)N3CCC[C@H]3C(=O)N[C@H]3CSSC[C@H](NC(=O)[C@H](C(C)C)NC1=O)C(=O)N[C@@H](CCCNC(=N)N)C(=O)N[C@@H](CC(C)C)C(=O)N[C@@H](Cc1c[nH]c4ccccc14)C(=O)N[C@H](C(=O)N[C@@H](CCCCN)C(=O)N[C@@H](CCCCN)C(=O)N[C@@H](CCCCN)C(=O)N[C@@H](CC(C)C)C(=O)N[C@@H](Cc1c[nH]c4ccccc14)C(N)=O)CSSC[C@H](NC(=O)[C@H](CCCCN)NC(=O)[C@H](CCCNC(=N)N)NC(=O)[C@H](CCC(=O)O)NC(=O)[C@H](CO)NC(=O)[C@H](CC(=O)O)NC3=O)C(=O)N2` (H-YCQKFLAPCDSERKCCEGLVCRLWCKKKLW-NH2; disulfide 2-16, 9-21, 15-25), the “fold change (FC)” value worked out at 12 with Mast cell [18] and 50 in [11]. In addition, in the data set on Rattus norvegicus [13], the EC50 stood at 294 nM. In addition, the IC50 was determined as 5.9 nM in data set [14]; 32 nM in [15]; 8.3 nM in [2]; 2900 nM in data set [4]; 1770 nM in data set [5]; 780 nM in [6]. The results for the half-maximal inhibitory concentration (IC50) in data set [7], in data set [8] and in data set [9] were > 17000 nM, > 30000 nM and 1190 nM, respectively. Also, in data set [3], the LED turned out to be 3.3 µM. Also, in data set [10], the half-life was < 3 h. Also, the Activity entry with Rattus norvegicus [17] is “Dose-Dependent Effect”.

Source of the values: ChEMBL document CHEMBL5038633 (J Med Chem, 2022).
